Active and inactive are the calls of the source. No cut-off for these calls is given here.
Columns and labels:
[1] = Cytotoxicity against MDCK cells assessed as decrease in cell viability after 40 hrs by CellTiter-Glo assay; format: cell-based, Canis lupus familiaris; conditions: dog
[2] = Antiviral activity against Influenza A virus (A/WSN/33(H1N1)) infected in MDCK cells assessed as inhibition of virus-induced cytopathic effect incubated for 40 hrs by CellTiter-Glo assay; format: functional, cell-based, Influenza A virus (A/WSN/1933(H1N1))
[3] = Cytotoxicity against MDCK cells assessed as cell viability at 100 uM after 40 hrs by CellTiter-Glo assay relative to control; format: cell-based, Canis lupus familiaris; conditions: dog, read-out: Activity
[4] = Antiviral activity against Influenza A virus (A/WSN/33(H1N1)) infected in MDCK cells assessed as inhibition of virus-induced cytopathic effect at 100 uM incubated for 40 hrs by CellTiter-Glo assay; format: functional, Influenza A virus (A/WSN/1933(H1N1))
[5] = Selectivity index, ratio of CC50 against uninfected MDCK cells to IC50 against Influenza A virus (A/WSN/33(H1N1)) infected MDCK cells; format: toxicity, cell-based; conditions: dog; read-out: Ratio CC50/IC50
[6] = tested on: Influenza A virus (A/WSN/1933(H1N1)); test: Inhibition of Influenza A virus (A/WSN/33(H1N1)) neuraminidase activity using 4-MUNANA as substrate incubated for 30 mins by fluorescence spectrophotometry relative to control
[7] = target: Hemagglutinin (Influenza A virus) (UniProt B4URE7); test: Inhibition of Influenza A virus (A/WSN/33(H1N1)) hemagglutinin-mediated aggregation of chicken erythrocytes after 30 mins; conditions: Influenza A virus (A/WSN/1933(H1N1))
Sequence of Hemagglutinin (Influenza A virus) (B4URE7 as listed by the source): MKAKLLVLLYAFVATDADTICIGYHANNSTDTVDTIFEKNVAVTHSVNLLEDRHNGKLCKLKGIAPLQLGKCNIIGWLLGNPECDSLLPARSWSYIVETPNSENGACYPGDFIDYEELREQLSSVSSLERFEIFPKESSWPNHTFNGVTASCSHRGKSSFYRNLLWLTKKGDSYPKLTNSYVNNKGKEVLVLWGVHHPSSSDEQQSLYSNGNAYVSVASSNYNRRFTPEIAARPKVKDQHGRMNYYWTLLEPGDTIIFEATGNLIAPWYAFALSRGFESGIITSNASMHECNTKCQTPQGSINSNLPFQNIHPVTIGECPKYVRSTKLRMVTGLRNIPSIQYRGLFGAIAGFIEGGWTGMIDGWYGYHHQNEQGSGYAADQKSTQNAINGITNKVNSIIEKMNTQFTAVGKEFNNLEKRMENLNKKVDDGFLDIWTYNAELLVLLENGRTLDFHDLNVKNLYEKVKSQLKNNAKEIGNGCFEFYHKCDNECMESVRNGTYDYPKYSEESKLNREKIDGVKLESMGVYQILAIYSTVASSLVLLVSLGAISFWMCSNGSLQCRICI

[8] = Binding affinity to recombinant Influenza virus hemagglutinin by surface plasmon resonance analysis; parameters: species or system unidentified influenza virus; conditions: read-out: Kd(app)
[9] = tested on: Influenza A virus (A/WSN/1933(H1N1)); test: Antiviral activity against Influenza A virus (A/WSN/33(H1N1)) infected in MDCK cells assessed as inhibition of viral production after 2 hrs post-infection by plaque formation assay; format: functional, cell-based
[10] = Antiviral activity against Influenza A virus (A/WSN/33(H1N1)) infected in MDCK cells assessed as inhibition of viral production up to 2 hrs post-infection by plaque formation assay; format: functional, Influenza A virus (A/WSN/1933(H1N1))
[11] = Cytotoxicity against MDCK cells assessed as cell viability at 50 uM after 40 hrs by CellTiter-Glo assay; format: cell-based, Canis lupus familiaris; conditions: dog, read-out: Activity
[12] = Antiviral activity against Influenza A virus (A/WSN/33(H1N1)) infected in MDCK cells assessed as inhibition of virus-induced cytopathic effect at 50 uM incubated for 40 hrs by CellTiter-Glo assay; format: functional, Influenza A virus (A/WSN/1933(H1N1))
[13] = Antiviral activity against Influenza A virus (A/WSN/33(H1N1)) infected in MDCK cells assessed as inhibition of virus-induced cytopathic effect at 10 uM incubated for 40 hrs by CellTiter-Glo assay; format: functional, Influenza A virus (A/WSN/1933(H1N1))
[14] = Cytotoxicity against MDCK cells assessed as cell viability at 10 uM after 40 hrs by CellTiter-Glo assay; format: cell-based, Canis lupus familiaris; conditions: dog, read-out: Activity
[15] = Cytotoxicity against MDCK cells assessed as cell viability at 100 uM after 40 hrs in presence of sialic acid by CellTiter-Glo assay; format: cell-based, Canis lupus familiaris; conditions: dog, read-out: Activity
[16] = Cytotoxicity against MDCK cells assessed as cell viability at 100 uM after 40 hrs in presence of betulinic acid by CellTiter-Glo assay; format: cell-based, Canis lupus familiaris; conditions: dog, read-out: Activity

Row | SMILES | CC50 at 40 h [1] [µM] | IC50 [2] [µM] | viability at 40 h, 100 µM [3] [%] | inhibition at 100 µM [4] [%] | selectivity ratio [5] | also measured
1 | COC(=O)[C@@]1(OCCn2cc(CNC(=O)[C@]34CCC(C)(C)C[C@@H]3C3=CC[C@@H]5[C@@]6(C)CC[C@H](O)C(C)(C)[C@@H]6CC[C@@]5(C)[C@]3(C)CC4)nn2)C[C@H](OC(C)=O)[C@@H](NC(C)=O)[C@H]([C@H](OC(C)=O)[C@@H](COC(C)=O)OC(C)=O)O1 | > 500 | 95.2 | 97.1 | 57.8 | > 5.2 | –
2 | C=C(C)[C@@H]1CC[C@]2(C(=O)OCCO[C@]3(C(=O)OC)C[C@H](O)[C@@H](NC(C)=O)[C@H]([C@H](O)[C@H](O)CO)O3)CC[C@]3(C)[C@H](CC[C@@H]4[C@@]5(C)CC[C@H](O)C(C)(C)[C@@H]5CC[C@]43C)[C@@H]12 | > 500 | 41.2 | 98.3 | 94.8 | > 12.1 | inhibition [6]: inactive; inhibition [7]: Dose-dependent effect; Kd [8]: 17 µM; inhibition [9]: inactive; inhibition (INH) [10]: >75%
3 | CCOC(=O)C1=C[C@@H](OC(CC)CC)[C@H](NC(C)=O)[C@@H](N)C1 [OSELTAMIVIR] | > 500 | 46.5 | – | – | > 10.8 | viability at 40 h, 50 µM [11]: 98.5%; inhibition at 50 µM [12]: 72.6%
4 | COc1cc(/C=C/C(=O)CC(=O)/C=C/c2ccc(O)c(OC)c2)ccc1O [CURCUMIN] | 48.3 | 6.7 | – | – | 7.2 | inhibition at 10 µM [13]: 69.3%; viability at 40 h, 10 µM [14]: 98.7%
5 | C=C(C)[C@@H]1CC[C@]2(C(=O)NCc3cn(CCO[C@]4(C(=O)OC)C[C@H](OC(C)=O)[C@@H](NC(C)=O)[C@H]([C@H](OC(C)=O)[C@@H](COC(C)=O)OC(C)=O)O4)nn3)CC[C@]3(C)[C@H](CC[C@@H]4[C@@]5(C)CC[C@H](O)C(C)(C)[C@@H]5CC[C@]43C)[C@@H]12 | > 500 | 78.3 | 105 | 67.6 | > 6.3 | –
6 | C=C(C)[C@@H]1CC[C@]2(C(=O)OCCO[C@]3(C(=O)OC)C[C@H](OC(C)=O)[C@@H](NC(C)=O)[C@H]([C@H](OC(C)=O)[C@@H](COC(C)=O)OC(C)=O)O3)CC[C@]3(C)[C@H](CC[C@@H]4[C@@]5(C)CC[C@H](O)C(C)(C)[C@@H]5CC[C@]43C)[C@@H]12 | 178 | 61.3 | 80.7 | 86.6 | 2.9 | inhibition [6]: inactive
7 | C=C(C)[C@@H]1CC[C@]2(C(=O)O)CC[C@]3(C)[C@H](CC[C@@H]4[C@@]5(C)CC[C@H](O)C(C)(C)[C@@H]5CC[C@]43C)[C@@H]12 [BETULINIC ACID] | – | – | 22.8 | – | – | Kd [8]: 30 µM; viability at 40 h, 100 µM [15]: 20.3%
8 | COC(=O)[C@@]1(OCCOC(=O)[C@]23CCC(C)(C)C[C@@H]2C2=CC[C@@H]4[C@@]5(C)CC[C@H](O)C(C)(C)[C@@H]5CC[C@@]4(C)[C@]2(C)CC3)C[C@H](OC(C)=O)[C@@H](NC(C)=O)[C@H]([C@H](OC(C)=O)[C@@H](COC(C)=O)OC(C)=O)O1 | – | – | 90.1 | 18.7 | – | –
9 | COC(=O)[C@@]1(n2cc(CNC(=O)[C@]34CCC(C)(C)C[C@@H]3C3=CC[C@@H]5[C@@]6(C)CC[C@H](O)C(C)(C)[C@@H]6CC[C@@]5(C)[C@]3(C)C[C@H]4O)nn2)C[C@H](O)[C@@H](NC(C)=O)[C@H]([C@H](O)[C@H](O)CO)O1 | – | – | 104 | -3.6 | – | –
10 | CC(=O)N[C@H]1[C@H]([C@H](O)[C@H](O)CO)O[C@@](O)(C(=O)O)C[C@@H]1O | – | – | 96.4 | 2 | – | viability at 40 h, 100 µM [16]: 20.3%; Kd [8]: 692 µM
11 | COC(=O)[C@@]1(OCCN=[N+]=[N-])C[C@H](OC(C)=O)[C@@H](NC(C)=O)[C@H]([C@H](OC(C)=O)[C@@H](COC(C)=O)OC(C)=O)O1 | – | – | 100 | 4.3 | – | –
